pIC50: −log10 of the molar value.
System: 519858-162-T-J1-PDC complex spheroid viability
Test: Anticancer human tumor 519858-162-T-J1-PDC patient-derived colon adenocarcinoma cell line growth inhibition [GQUAD]
Conditions: for pIC50: curve of first compound; for viability, T/C: stronger effect = lower value
Procedure, shortened: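 Viability of tumor cells grown as complex spheroids with endothelial and stromal cells, exposed to drug combinations. Top concentration at or near clinical Cmax (else 10 microM), diluted in half-log increments.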

[1] = second compound 0.0316 µM, first compound 0.0316 µM
[2] = second compound 0.0316 µM, first compound 0.1 µM
[3] = second compound 0.0316 µM, first compound 0.316 µM
[4] = second compound 0.0316 µM, first compound 1 µM
[5] = second compound 0.0316 µM, first compound 3.16 µM
[6] = second compound 0.0316 µM, first compound 10 µM
[7] = second compound 0.1 µM, first compound 0.0316 µM
[8] = second compound 0.1 µM, first compound 0.1 µM
[9] = second compound 0.1 µM, first compound 0.316 µM
[10] = second compound 0.1 µM, first compound 1 µM
[11] = second compound 0.1 µM, first compound 3.16 µM
[12] = second compound 0.1 µM, first compound 10 µM
[13] = second compound 0.316 µM, first compound 0.0316 µM
[14] = second compound 0.316 µM, first compound 0.1 µM
[15] = second compound 0.316 µM, first compound 0.316 µM
[16] = second compound 0.316 µM, first compound 1 µM
[17] = second compound 0.316 µM, first compound 3.16 µM
[18] = second compound 0.316 µM, first compound 10 µM
[19] = second compound 1 µM, first compound 0.0316 µM
[20] = second compound 1 µM, first compound 0.1 µM
[21] = second compound 1 µM, first compound 0.316 µM
[22] = second compound 1 µM, first compound 1 µM
[23] = second compound 1 µM, first compound 3.16 µM
[24] = second compound 1 µM, first compound 10 µM
[25] = second compound 3.16 µM, first compound 0.0316 µM
[26] = second compound 3.16 µM, first compound 0.1 µM
[27] = second compound 3.16 µM, first compound 0.316 µM
[28] = second compound 3.16 µM, first compound 1 µM
[29] = second compound 3.16 µM, first compound 3.16 µM
[30] = second compound 3.16 µM, first compound 10 µM
[31] = second compound 10 µM, first compound 0.0316 µM
[32] = second compound 10 µM, first compound 0.1 µM
[33] = second compound 10 µM, first compound 0.316 µM
[34] = second compound 10 µM, first compound 1 µM
[35] = second compound 10 µM, first compound 3.16 µM
[36] = second compound 10 µM, first compound 10 µM
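Throughout, for viability, T/C: 100% = DMSO vehicle control viability.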

Cc1cccc(N(C)C(=O)C2C(O)CCN2c2nc(C)cc(C(F)(F)F)c2C#N)c1 (stereo not given) + Cc1cnc(CNC(=O)c2c(=O)c3ccc(N4CCCN(C)CC4)nc3n3c2sc2ccccc23)cn1
pIC50 (second compound 0.0316 µM): < 5.00 | pIC50 (second compound 0.1 µM): < 5.00 | pIC50 (second compound 0.316 µM): < 5.00 | pIC50 (second compound 1 µM): 5.70 | pIC50 (second compound 3.16 µM): 7.47 | pIC50 (second compound 10 µM): 7.12 | viability, T/C [1]: 87.7% | viability, T/C [2]: 70.2% | viability, T/C [3]: 62.9% | viability, T/C [4]: 75.9% | viability, T/C [5]: 70.7% | viability, T/C [6]: 81.6% | viability, T/C [7]: 67.2% | viability, T/C [8]: 72.2% | viability, T/C [9]: 76% | viability, T/C [10]: 62% | viability, T/C [11]: 50% | viability, T/C [12]: 78.8% | viability, T/C [13]: 82.5% | viability, T/C [14]: 79.8% | viability, T/C [15]: 59.8% | viability, T/C [16]: 52.8% | viability, T/C [17]: 65.5% | viability, T/C [18]: 49.3% | viability, T/C [19]: 71.6% | viability, T/C [20]: 62.1% | viability, T/C [21]: 52.4% | viability, T/C [22]: 56.1% | viability, T/C [23]: 50.5% | viability, T/C [24]: 44.2% | viability, T/C [25]: 48.9% | viability, T/C [26]: 50% | viability, T/C [27]: 45.5% | viability, T/C [28]: 36.2% | viability, T/C [29]: 46.1% | viability, T/C [30]: 40.9% | viability, T/C [31]: 50.6% | viability, T/C [32]: 54.8% | viability, T/C [33]: 44.4% | viability, T/C [34]: 41.2% | viability, T/C [35]: 43.2% | viability, T/C [36]: 43.4%

O=C(NO)c1cnc(N2CCN(S(=O)(=O)c3ccc4ccccc4c3)CC2)nc1 + Cc1cnc(CNC(=O)c2c(=O)c3ccc(N4CCCN(C)CC4)nc3n3c2sc2ccccc23)cn1
pIC50 (second compound 0.0316 µM): 6.61 | pIC50 (second compound 0.1 µM): 6.47 | pIC50 (second compound 0.316 µM): 6.46 | pIC50 (second compound 1 µM): 6.76 | pIC50 (second compound 3.16 µM): 6.97 | pIC50 (second compound 10 µM): > 7.50 | viability, T/C [1]: 119% | viability, T/C [2]: 72.2% | viability, T/C [3]: 50.9% | viability, T/C [4]: 13.3% | viability, T/C [5]: 0.34% | viability, T/C [6]: 0.45% | viability, T/C [7]: 81.2% | viability, T/C [8]: 104% | viability, T/C [9]: 53% | viability, T/C [10]: 11.7% | viability, T/C [11]: 1.16% | viability, T/C [12]: 1.51% | viability, T/C [13]: 92% | viability, T/C [14]: 85.8% | viability, T/C [15]: 53.8% | viability, T/C [16]: 8.35% | viability, T/C [17]: 5.71% | viability, T/C [18]: 1.25% | viability, T/C [19]: 88.7% | viability, T/C [20]: 66.8% | viability, T/C [21]: 31.8% | viability, T/C [22]: 6.88% | viability, T/C [23]: 1.42% | viability, T/C [24]: 0.68% | viability, T/C [25]: 68.2% | viability, T/C [26]: 45.7% | viability, T/C [27]: 37.1% | viability, T/C [28]: 5.54% | viability, T/C [29]: 3.32% | viability, T/C [30]: 1.98% | viability, T/C [31]: 42.8% | viability, T/C [32]: 44.6% | viability, T/C [33]: 26.1% | viability, T/C [34]: 5.86% | viability, T/C [35]: 3.74% | viability, T/C [36]: 2.11%

C#Cc1c(F)ccc2cc(O)cc(-c3ncc4c(N5CC6CCC(C5)N6)nc(OCC56CCCN5CC(F)C6)nc4c3F)c12 (stereo not given) + Cc1[nH]c2ccc(F)cc2c1-c1nc2c3cccnc3c3ncccc3c2[nH]1
pIC50 (second compound 0.0316 µM): < 5.00 | pIC50 (second compound 0.1 µM): < 5.00 | pIC50 (second compound 0.316 µM): < 5.00 | pIC50 (second compound 1 µM): < 5.00 | pIC50 (second compound 3.16 µM): < 5.00 | pIC50 (second compound 10 µM): < 5.00 | viability, T/C [1]: 103% | viability, T/C [2]: 82.9% | viability, T/C [3]: 92% | viability, T/C [4]: 113% | viability, T/C [5]: 72.3% | viability, T/C [6]: 73.2% | viability, T/C [7]: 111% | viability, T/C [8]: 85.9% | viability, T/C [9]: 126% | viability, T/C [10]: 83.9% | viability, T/C [11]: 68.3% | viability, T/C [12]: 73% | viability, T/C [13]: 104% | viability, T/C [14]: 112% | viability, T/C [15]: 87.5% | viability, T/C [16]: 75.7% | viability, T/C [17]: 106% | viability, T/C [18]: 66.1% | viability, T/C [19]: 79.4% | viability, T/C [20]: 73.9% | viability, T/C [21]: 104% | viability, T/C [22]: 60.4% | viability, T/C [23]: 106% | viability, T/C [24]: 58.5% | viability, T/C [25]: 86.5% | viability, T/C [26]: 80% | viability, T/C [27]: 79.7% | viability, T/C [28]: 52.6% | viability, T/C [29]: 76.7% | viability, T/C [30]: 80.3% | viability, T/C [31]: 78.3% | viability, T/C [32]: 83.2% | viability, T/C [33]: 76.3% | viability, T/C [34]: 63.5% | viability, T/C [35]: 52.3% | viability, T/C [36]: 65.6%

CC(C)n1c(=O)n(C)c2cnc3cc(F)c(-c4ccc(OCCCN5CCCCC5)nc4)cc3c21 + Cc1[nH]c2ccc(F)cc2c1-c1nc2c3cccnc3c3ncccc3c2[nH]1
pIC50 (second compound 0.0316 µM): < 5.00 | pIC50 (second compound 0.1 µM): < 5.00 | pIC50 (second compound 0.316 µM): < 5.00 | pIC50 (second compound 1 µM): < 5.00 | pIC50 (second compound 3.16 µM): < 5.00 | pIC50 (second compound 10 µM): < 5.00 | viability, T/C [1]: 97.7% | viability, T/C [2]: 124% | viability, T/C [3]: 114% | viability, T/C [4]: 107% | viability, T/C [5]: 78.2% | viability, T/C [6]: 67.9% | viability, T/C [7]: 77.5% | viability, T/C [8]: 96.8% | viability, T/C [9]: 86.6% | viability, T/C [10]: 91.3% | viability, T/C [11]: 89.7% | viability, T/C [12]: 121% | viability, T/C [13]: 91.5% | viability, T/C [14]: 94.2% | viability, T/C [15]: 82% | viability, T/C [16]: 101% | viability, T/C [17]: 84.8% | viability, T/C [18]: 80.7% | viability, T/C [19]: 79.2% | viability, T/C [20]: 85.5% | viability, T/C [21]: 101% | viability, T/C [22]: 119% | viability, T/C [23]: 96.4% | viability, T/C [24]: 69.5% | viability, T/C [25]: 85.9% | viability, T/C [26]: 75.6% | viability, T/C [27]: 75.9% | viability, T/C [28]: 56.3% | viability, T/C [29]: 50.5% | viability, T/C [30]: 67.3% | viability, T/C [31]: 65.8% | viability, T/C [32]: 73.8% | viability, T/C [33]: 56.8% | viability, T/C [34]: 51.4% | viability, T/C [35]: 54.9% | viability, T/C [36]: 53%

COc1cc(C2c3cc4c(cc3C(OC3OC5COC(C)OC5C(O)C3O)C3COC(=O)C23)OCO4)cc(OC)c1O (stereo not given) + CN(C)c1ccc(Nc2c3ccc(NC(=O)CCN4CCCC4)cc3nc3cc(NC(=O)CCN4CCCC4)ccc23)cc1
pIC50 (second compound 0.0316 µM): < 5.00 | pIC50 (second compound 0.1 µM): < 5.00 | pIC50 (second compound 0.316 µM): < 5.00 | pIC50 (second compound 1 µM): < 5.00 | pIC50 (second compound 3.16 µM): < 5.00 | pIC50 (second compound 10 µM): < 5.00 | viability, T/C [1]: 87.2% | viability, T/C [2]: 80.1% | viability, T/C [3]: 83.5% | viability, T/C [4]: 69.2% | viability, T/C [5]: 80.7% | viability, T/C [6]: 103% | viability, T/C [7]: 68.6% | viability, T/C [8]: 81.8% | viability, T/C [9]: 79.6% | viability, T/C [10]: 94.3% | viability, T/C [11]: 60.8% | viability, T/C [12]: 84% | viability, T/C [13]: 93.5% | viability, T/C [14]: 95.8% | viability, T/C [15]: 80.5% | viability, T/C [16]: 61.8% | viability, T/C [17]: 77% | viability, T/C [18]: 62.7% | viability, T/C [19]: 85.4% | viability, T/C [20]: 65.2% | viability, T/C [21]: 64.9% | viability, T/C [22]: 65.9% | viability, T/C [23]: 77% | viability, T/C [24]: 80.3% | viability, T/C [25]: 59.8% | viability, T/C [26]: 76.2% | viability, T/C [27]: 65.3% | viability, T/C [28]: 74.1% | viability, T/C [29]: 101% | viability, T/C [30]: 67.6% | viability, T/C [31]: 55.6% | viability, T/C [32]: 69.2% | viability, T/C [33]: 73.6% | viability, T/C [34]: 64.3% | viability, T/C [35]: 74.8% | viability, T/C [36]: 83.8%
